Source: ChEMBL document CHEMBL1150281, “Oleanane-type triterpenes from the flowers and roots of Saussurea muliensis” (2008)

Tests used:
Assay type in all cases: functional
[1] = tested on: Staphylococcus aureus; assay: Antimicrobial activity against Staphylococcus aureus ATCC 25923
[2] = tested on: Escherichia coli; assay: Antimicrobial activity against Escherichia coli ATCC 25922
[3] = tested on: Bacillus cereus; assay: Antimicrobial activity against Bacillus cereus
[4] = tested on: Candida albicans; assay: Antimicrobial activity against Candida albicans

Measured: MIC

CC(=O)O[C@@H]1CC[C@]2(C)[C@H]3CC=C4[C@@H]5C[C@](O)(CO)[C@H](O)[C@H](OC(C)=O)[C@]5(C)CC[C@@]4(C)[C@]3(C)CC[C@H]2C1(C)C
> 50 µg/mL: all assays above

CC1(C)[C@H](OC(=O)/C=C/c2ccc(O)c(O)c2)CC[C@]2(C)[C@H]3CC=C4[C@@H]5C[C@@](C)(C(=O)O)CC[C@]5(C)CC[C@@]4(C)[C@]3(C)CC[C@@H]12
> 50 µg/mL: all assays above

CCCCCCCCCCCCCCCC(=O)OC[C@@]1(O)C[C@H]2C3=CC[C@@H]4[C@@]5(C)CC[C@@H](OC(C)=O)C(C)(C)[C@@H]5CC[C@@]4(C)[C@]3(C)CC[C@@]2(C)[C@@H](OC(C)=O)[C@H]1O
> 50 µg/mL: all assays above

CC1(C)[C@@H](O)CC[C@]2(C)[C@H]3CC=C4[C@@H]5C[C@@](C)(C(=O)O)C[C@H](O)[C@]5(C)CC[C@@]4(C)[C@]3(C)CC[C@@H]12
> 50 µg/mL: all assays above

CC1(C)[C@H](OC(=O)/C=C/c2ccc(O)cc2)CC[C@]2(C)[C@H]3CC=C4[C@@H]5C[C@@](C)(C(=O)O)CC[C@]5(C)CC[C@@]4(C)[C@]3(C)CC[C@@H]12
> 50 µg/mL: all assays above

CO[C@]1(CO)C[C@H]2C3=CC[C@@H]4[C@@]5(C)CC[C@@H](OC(C)=O)C(C)(C)[C@@H]5CC[C@@]4(C)[C@]3(C)CC[C@@]2(C)[C@@H](OC(C)=O)[C@H]1O
> 50 µg/mL: all assays above
